According to patent US10058540B2, “2-amino-5,5-difluoro-6-(fluoromethyl)-6-phenyl-3,4,5,6-tetrahydropyridines as BACE1 inhibitors” (H. Lundbeck A/S, priority 2014, dated 2018):

Key:
Aβ40 = assay: Assessment of Aβ peptide levels in rat brain and plasma following BACE1 inhibition (Aβ40 ELISA); format: in vivo; conditions: 3 hours post dose, vs vehicle
Protocol: Assessment of Aβ Peptide Levels in Rat Brain and Plasma Following BACE1 Inhibition. Animals.
Young adult Male Sprague Dawley rats of approximately 250 g weight were purchased from Charles River and received 0-30 mg/kg of vehicle (10% HP betaCD+1M MeSO4, pH 2.5) or test compounds (dissolved in vehicle) only by oral gavage (p.o). The compounds are dosed at a volume of […]. Cohorts of 5-10 animals were established for each treatment condition.
At T=180 minutes after initial dosing the animals were stunned and decapitated with a guillotine. Trunk-blood was sampled in EDTA coated tubes after decapitation of the animal. The blood was centrifuged at 2200 G at 4° C. for 15 minutes and the plasma was collected and frozen at −80° C. The blood was aliquoted for Aβ ELISA and DMPK analysis. Immediately following sacrifice, the brain was extracted and split into 2 halves. The right hemibrains were snap frozen on dry ice and stored at −80° C. The left half was dissected; with the front forebrain taken for Aβ ELISA and the remainder used for DMPK analysis. These samples were also snap frozen on dry ice and stored at −80° C. until use for analysis.
The cortex samples were thawed slightly on wet ice before they were homogenized with a small volume dispersing instrument (T10 basic ULTRA-TURRAX®) which was set at speed 5 for approximately 5-7 sec. The tissue was processed in a 10 times volume of the weight, for example 100 mg of tissue was homogenized in 1000 μL of Homogenization buffer. Homogenization buffer: 50 ml Milli Q water+[…]+0.2% Diethylamin (DEA)+1 tablet of Complete Protease inhibitor cocktail+1 nM 4-(2-aminoethyl)benzenesulfonyl fluoride hydrochloride irreversible serine protease inhibitor (AEBSF).
After homogenization 450 μL aliquots of the samples are collected into a 1.5 ml Eppendorf tube and placed on wet ice, 0.5% NP-40 (50 ul) was added to all samples and then they were incubated on ice for 30 min. After which all samples were sonicated using an Ultrasonic homogenizer with 20 kHz homogeneous sound (SONOPLUS HD2070, Bandelin Electronic) 10 pulse set at 12-13% power to extract all the Aβ species. The samples were then centrifuged (Ole Dich 157 MPRF Micro centrifuge) at 20000 G for 20 minutes at 4° C. After centrifugation 285 μL of the supernatant was pipetted into 600 μL microtubes tubes and neutralized with 15 μL of 1M Tris-HCL buffer.
WAKO 294-62501 Human/Rat Abeta amyloid (40) kit was used for all ELISA analyses. 30 μL plasma samples or 30 μL of the cortex supernatants generated as described above were placed in 600 μL microtubes tubes on wet ice. To this 30 μL of 8M Urea (AppliChem A1049, 9025) are added to generate a 2-fold dilution. Both plasma and cortex supernatants are incubated on ice for 30 min. Standard rows were prepared from the standard peptide stock provided in the kit and standard diluent containing 1.6M Urea (200 μL 8M Urea+800 μL of standard diluent) and 0.8M Urea (400 μL 8M Urea+3600 μL Standard diluent). A serial 2-fold dilution of Aβ40 from 100 pmol/ml to 0 pmol/L was prepared for the assay.
After incubation with urea, all samples were further diluted by addition of 5 times standard diluent from the Kit. This was done by adding 240 μL Standard Diluent to 60 μL sample/urea mixture, which was then mixed well. 100 μL of each diluted sample was pipetted into designated wells of the ELISA plate in duplicates. The plate was then covered and incubated overnight at 4° C. The following day, the ELISA kit was brought to room temperature before use. The incubated plate was washed 5 times with the 20× washing solution diluted in Milli Q water. 100 μL HRP-conjugate was applied to each well, and the plate was covered and incubates at 4° C. for 1 hr. The wash was repeated again for 5 times. 100 μL 3,3′,5,5′-Tetramethylbenzidine (TMB) solution was applied to each well and the plate was covered and incubated in the dark at room temperature for 30 minutes. […]

P-gp (MDR1) = assay: MDCK-MDR1 assay (permeability / Pgp efflux); format: in vitro ADME; conditions: dog, Papp BA/Papp AB, Pgp substrate when ≥2
Protocol: The permeability of the test compounds was assessed in MDCK-MDR1 cells that were cultured to confluency (4-6 days) in a 96 transwell plate. Test compounds were diluted with the transport buffer (HBSS+1% BSA) to a concentration of 0.5 μM and applied to the apical or basolateral side of the cell monolayer. Permeation of the test compounds from A to B direction or B to A direction was determined in triplicate over a 60-minute incubation time at 37° C. and 5% CO2 with a relative humidity of 95%. Test compounds were quantified by LC-MS/MS analysis based on the peaks area ratios of analyte/IS in both the receiver and donor wells of the transwell plate.
The apparent permeability coefficient Papp (cm/s) was calculated using the equation: Papp=(dCr/dt)×Vr/(A×C0) Where dCr/dt is the cumulative concentration of compound in the receiver chamber as a function of time (μM/s); Vr is the solution volume in the receiver chamber (0.05 mL on the apical side; 0.25 mL on the basolateral side); A is the surface area for the transport, i.e. 0.0804 cm^2 for the area of the monolayer; C0 is the initial concentration in the donor chamber (μM).
Compounds are classified Pgp substrates when efflux ratio (Papp BA/Papp AB) is ≥2.

**Q.** `COc1cnc(C(=O)Nc2cc(F)c(F)c([C@@]3(CF)N=C(N)CCC3(F)F)c2)cn1` [Compound 11, (S)-N-(3-(6-amino-3,3-difluoro-2-(fluoromethyl)-2,3,4,5-tetrahydropyridin-2-yl)-4,5-difluorophenyl)-5-methoxypyrazine-2-carboxamide] was tested. Which Aβ40 reduction (Aβ40; rat brain, 10 mg/kg p.o.) did it give?
**A.** Its Aβ40 reduction is 43%.

**Q.** What about the Aβ40 reduction (Aβ40; rat brain, 30 mg/kg p.o.) of the same compound?
**A.** The Aβ40 reduction was 50%.

**Q.** And the Aβ40 reduction (Aβ40; rat plasma, 10 mg/kg p.o.)?
**A.** The Aβ40 reduction was 31%.

**Q.** What about the Aβ40 reduction (Aβ40; rat plasma, 30 mg/kg p.o.) of the same compound?
**A.** Its Aβ40 reduction is 37%.

**Q.** And the efflux ratio at 60 min, 0.5 μM (P-gp (MDR1))?
**A.** Its efflux ratio at 60 min, 0.5 μM is 0.77.
